Here are results for two substances from patent publication US20160243021A1, “Collagen-Boosting Compositions And Methods” (ELC MANAGEMENT LLC, priority 2015, published 2016).

Holding throughout (format): cell-based, human
Test [1] concerns adult NHDFs. The experiment in a line: Collagen-boosting assay, Example 4 (PIP ELISA; Mitostime). The settings on record: 10 ng/ml; 3 days. The protocol: Mitostime was tested for its collagen-boosting efficacy in NHDFs. TGFβ, at 10 ng/ml, was run as a positive control. Adult NHDFs were seeded and grown to confluence in a 96 well plate prior to treatment with mitostime 0.075%, 0.15% and 0.3% (w/v). The plate was incubated for 3 days at 37° C./5% CO2. Supernatants were harvested and stored at −80° C. in siliconized tubes until the PIP ELISA was performed as outlined in Example 1. For this assay, supernatants were diluted 1:200. […] TGFβ increased collagen synthesis by 27% (p=0.0001).
A general note: ELISA stands for enzyme-linked immunosorbent assay.

Test [2] concerns adult NHDFs. Kind of test: Collagen-boosting assay, Example 4 (PIP ELISA; Mitostime in combination with Argireline). The settings on record: 10 ng/ml; 3 days. The protocol: Mitostime also was tested in combination with Argireline for efficacy in boosting collagen synthesis in NHDFs. TGFβ, at 10 ng/ml, was run as a positive control. Adult NHDFs were seeded and grown to confluence in a 96 well plate prior to treatment with Mitostime at 0.3%/Argireline peptide at 0.00005%; Mitostime at 0.15%/Argireline peptide at 0.000025%; and Mitostime at 0.075%/Argireline peptide at 0.0000125%. The plate was incubated for 3 days at 37° C./5% CO2. Supernatants were harvested and stored at −80° C. in siliconized tubes until the PIP ELISA was performed as outlined in Example 1. For this assay, supernatants were diluted 1:200. […] TGFβ increased collagen synthesis by 23%.

Test [3] has as its system adult NHDFs. Kind of test: Collagen-boosting assay, Example 3 (PIP ELISA; Argireline). The settings on record: 3 days. The procedure:
In this assay, Argireline was tested for its efficacy in boosting collagen synthesis in NHDFs. TGFβ was run as a positive control.
Adult NHDFs were seeded and grown to confluence in a 96 well plate prior to treatment with Argireline at concentrations of 0.001, 0.01, 0.1 and 1% (v/v) in media (negative control) or with 10 ng/ml TGFβ (positive control) in media.
The plate was incubated for 3 days at 37° C./5% CO2. Supernatants were harvested and stored at −80° C. in siliconized tubes until the PIP ELISA was performed, as described in Example 1. For this assay, supernatants were diluted 1:40.

The subject of the next test is adult NHDF cells. The experiment in a line: Collagen-boosting assay, Example 5 (PIP ELISA; NXP-75). The conditions noted are these: 10 ng/ml; 3 days. The procedure: In this assay, NXP-75 was tested for its efficacy in boosting collagen synthesis in NHDFs. TGFβ (10 ng/ml) was run as a positive control. Adult NHDF cells were seeded and grown to confluence in a 96 well flat bottom plate prior to treatment. NXP-75 powder was prepared at the following dilutions: 0.0001, 0.001, 0.01 and 0.1% (w/v) in media (negative control). The plate was incubated for 3 days at 37° C./5% CO2. Supernatants were harvested and stored at −80° C. in siliconized tubes until the PIP ELISA was performed. For this assay, supernatants were diluted 1:200. […] TGFβ enhanced collagen synthesis by 20% compared with media.

Regarding TGFβ, in the test with adult NHDFs [1], the “increase in collagen synthesis compared with media” value is given as 27%. In addition, in the test on adult NHDFs [2], the “increase in collagen synthesis” value was 23%. Further, the “increase in collagen levels” value in the test on adult NHDFs [3] (10 ng/ml) stood at 147%. Also, the “boost of collagen synthesis compared with media” value with adult NHDF cells amounted to 20%.

As for acetyl hexapeptide-3 [Argireline], the “increase in collagen synthesis compared with media” value in the test on adult NHDFs [3] (0.01%) was determined as 29%; with adult NHDFs [3] (0.1% (v/v)), 76%.
